Measurements published in US20030133918A1, “Methods for ex vivo propagation of somatic stem cells” (priority 2001, published 2003).

Assays:
[1] = test system: rat liver epithelial cell strains; assay: Colony formation assay of rat liver epithelial cell strains in Xs-free or Xs-containing medium; type: cell-based; settings: for Colony formation efficiency Xs+/Xs− Ratio: 50 μM xanthosine vs Xs-free medium; for Colony formation efficiency, Xs+ (Mean % ± SD; n = 6): 50 μM xanthosine, 14 days, 200 cells per well
Excerpt: Three Xs-free (“Xs-F”) cell strains and 8 Xs-derived (“Xs-D”) cell strains were chosen for cell kinetics analysis. Despite the similarities in their derivation course, there is a remarkable difference in the growth properties of Xs-F and Xs-D cell strains (see Table 1). […] This is a highly significance difference (p=0.004). […] The estimated mean increase in colony formation efficiency for Xs-D strains in Xs-containing medium is 11-fold, ranging from a 10% (Xs-D9; not statistically significant) to a 40-fold increase (Xs-D13; p<0.0001). The growth of Xs-F strains was unaffected by Xs even at the higher concentration of 100 μM (data not shown). [table]

Xs-D8 cells = assay: Daughter pair analysis (DPA), BrdU incorporation; type: cell-based, rat; settings: addition of Xs; n=58 pairs; 16% in absence of Xs
Experimental: The assay is called a “daughter pair analysis” (DPA). To perform the DPA, cells are plated in Xs-containing medium at microcolony density (approximately one cell per 40× microscope field). After allowing 4 to 5 hours for cell adherence, asymmetric cell kinetics are induced by changing to Xs-free medium. After about 16 hours to allow cell divisions to produce “daughter pairs”, the cells are labeled for 4 hours with the thymidine analogue bromodeoxyuridine (BrdU). The cells are then fixed and evaluated for BrdU incorporation by in situ immunofluorescence.
When grown in the absence of Xs, 84% of Xs-D8 BrdU(+) daughter pairs show a single BrdU(+) daughter (n=76 pairs; e.g., FIGS. 3C,F). The BrdU(+) daughter is the cycling stem cell daughter, whereas the BrdU(−) daughter corresponds to a non-cycling transit cell daughter that can undergo differentiation in peptide hydrogels (data not shown). Consistent with its ability to shift cells from asymmetric to exponential kinetics, addition of Xs increases the fraction of double-BrdU(+) Xs-D8 daughter pairs from 16% to 76% (n=58 pairs; e.g., FIGS. 3B,E). […] For 70 scored daughter pairs in Xs-free medium, the frequency of Xs-F1 symmetric pairs was 5 times the frequency of Xs-D8 symmetric pairs.

bone marrow cells = assay: Non-adherent cell production in long-term bone marrow culture; type: cell-based, mice; settings: Xs 1 mM, medium with 25% horse serum
Experimental: The non-adherent cell production rate (CPR) is defined as the total number of non-adherent cells produced in a single long-term culture normalized to days of culture (mean=95 days; range=66 to 132) and input cell number (range=5×10^6 to 20×10^6 cells). To develop long-term bone marrow cultures, freshly isolated bone marrow cells from tibia and femurs of 7-12 week-old female C57BL/6J mice were grown in culture medium supplemented with 25% horse serum.

[2] = test system: freshly harvested murine bone marrow cells; assay: Bone marrow colony formation in soft agar (fresh bone marrow); type: cell-based
Experimental: The following numbers of freshly harvested murine bone marrow cells were plated in soft agar in replicates of 6 in 6-well plates: 1×10^5, 5×10^5, or 1×10^6. After 1-3 weeks, type I, II, and III colonies (see FIG. 2 for examples) were enumerated by phase microscopy.
Because of the difficulties anticipated in cloning Xs-dependent cells from heterogenous long-term bone marrow cultures, we decided to adopt a soft agar culture strategy. It is well known that hematopoietic progenitor cells will form colonies when grown in semi-solid medium (Dexter et al., 1984). […] In many bone marrow cell studies, conditions are selected to induce bone marrow cell differentiation. Methyl-cellulose or soft agar supplemented with lineage-promoting growth factors are widely used experimental systems (Dexter et al., 1984). For ideal SACK, we wished to minimize stimuli for differentiation. Therefore, we used agar developed in routine horse serum-supplemented long-term culture medium, without any additional growth factor source, as the gel medium for our studies. We followed procedures developed for detecting anchorage-independent growth of transformed tumor cells.
Given their associated HSC activity, LT-CFCs are predicted to divide with asymmetric cell kinetics. We evaluated whether Xs would increase the frequency of LT-CFC type I colonies in soft agar. Freshly prepared bone marrow cells were plated in soft agar developed in either control medium or medium containing 1 mM or 3 mM Xs.

LT-CFCs = assay: Serial transfer of LT-CFC-derived type I colonies in soft agar; type: cell-based, murine
Experimental: Type I colonies were isolated from soft agar with either control medium or medium containing Xs (data for 1 mM and 3 mM Xs are combined). Colonies were dispersed and then plated in a single 6-well in soft agar developed with culture medium containing the respective concentration of Xs. After 1-3 weeks, the number and type of secondary colonies were scored by phase microscopy. Bars indicate the mean percent of positive wells for each secondary colony type. Data for the control condition are the means of two independent experiments; data for Xs condition are the means of four independent experiments. We next evaluated whether LT-CFCs which produced type I colonies could be propagated in soft agar. Pasteur pipettes were used to isolate type I colonies from soft agar developed in either control medium or medium containing Xs. Isolated colonies were dispersed and their cells replated in their entirety in a single well of a 6-well plate in soft agar developed with the respective Xs concentration.

SMILES: O=c1[nH]c(=O)c2ncn([C@@H]3O[C@H](CO)[C@@H](O)[C@H]3O)c2[nH]1 [Xs, xanthosine]
- Growth of Xs-F strains ([1]; Xs-F strains, even at the higher concentration of 100 μM, data not shown): unaffected
- Colony formation efficiency Xs+/Xs− Ratio ([1]; cell strain Xs-D4): 1.5
- Colony formation efficiency, Xs+ (Mean % ± SD; n = 6) ([1]; cell strain Xs-D4): 8.0 ± 1.1%
- Colony formation efficiency Xs+/Xs− Ratio ([1]; cell strain Xs-D6): 1.4
- Colony formation efficiency, Xs+ (Mean % ± SD; n = 6) ([1]; cell strain Xs-D6): 5.3 ± 1.8%
- Colony formation efficiency Xs+/Xs− Ratio ([1]; cell strain Xs-D7): ≧22
- Colony formation efficiency, Xs+ (Mean % ± SD; n = 6) ([1]; cell strain Xs-D7): 6.7 ± 2.2%
- Colony formation efficiency Xs+/Xs− Ratio ([1]; cell strain Xs-D8): 17
- Colony formation efficiency, Xs+ (Mean % ± SD; n = 6) ([1]; cell strain Xs-D8): 22 ± 3.6%
- Colony formation efficiency Xs+/Xs− Ratio ([1]; cell strain Xs-D9): 1.1
- Colony formation efficiency, Xs+ (Mean % ± SD; n = 6) ([1]; cell strain Xs-D9): 11 ± 2.6%
- Colony formation efficiency Xs+/Xs− Ratio ([1]; cell strain Xs-D13): 40
- Colony formation efficiency, Xs+ (Mean % ± SD; n = 6) ([1]; cell strain Xs-D13): 12 ± 2.7%
- Colony formation efficiency Xs+/Xs− Ratio ([1]; cell strain Xs-D14): 1.3
- Colony formation efficiency, Xs+ (Mean % ± SD; n = 6) ([1]; cell strain Xs-D14): 0.4 ± 0.67%
- Colony formation efficiency Xs+/Xs− Ratio ([1]; cell strain Xs-D15): 5.3
- Colony formation efficiency, Xs+ (Mean % ± SD; n = 6) ([1]; cell strain Xs-D15): 10 ± 1.6%
- Colony formation efficiency Xs+/Xs− Ratio ([1]; cell strain Xs-F1): 0.9
- Colony formation efficiency, Xs+ (Mean % ± SD; n = 6) ([1]; cell strain Xs-F1): 9.8 ± 2.2%
- Colony formation efficiency Xs+/Xs− Ratio ([1]; cell strain Xs-F2): 1.0
- Colony formation efficiency, Xs+ (Mean % ± SD; n = 6) ([1]; cell strain Xs-F2): 29 ± 3.7%
- Colony formation efficiency Xs+/Xs− Ratio ([1]; cell strain Xs-F3): 1.0
- Colony formation efficiency, Xs+ (Mean % ± SD; n = 6) ([1]; cell strain Xs-F3): 18 ± 3.7%
- Estimated mean increase in colony formation efficiency for Xs-D strains in Xs-containing medium ([1]; mean of 8 Xs-D strains, Xs-containing vs Xs-free medium): 11 fold
- Increase in colony formation efficiency in Xs-containing medium ([1]; strain Xs-D9, not statistically significant): 10%
- Increase in colony formation efficiency in Xs-containing medium ([1]; strain Xs-D13, p<0.0001): 40 fold
- Fraction of double-BrdU(+) Xs-D8 daughter pairs (Xs-D8 cells): 76%
- Increase in the rate of production of non-adherent, differentiated cells (bone marrow cells): 80%
- Increase in the frequency of type I colonies ([2]; 1 mM Xs, density of 1×10^5 bone marrow cells per 6-well): 1.5 fold
- Mean fold increase in the frequency of type I colonies ([2]; 1 mM Xs, inputs of 5×10^5 or 1×10^6 cells): 5.3 fold
- Mean fold increase in type I colony formation ([2]; Xs 1 mM and 3 mM, range 1.2 to 6.2, p<0.017): 2.9 fold
- Occurrence of multiple secondary colonies, more common in the presence of Xs (LT-CFCs; presence vs absence of Xs): 5 times
- Cases of multiple secondary colonies that occurred in Xs-containing medium (LT-CFCs; secondary colonies from type I colonies, 1 mM and 3 mM Xs combined): Eighty-three
- Type I colonies more frequent than type II and III colonies (LT-CFCs; secondary colonies in Xs-containing soft agar): 50%
- Efficiency of giving rise to type I secondary colonies versus control type I colonies (LT-CFCs; type I colonies grown in Xs): 4 fold
